These results are taken from article PMC4449328 (European neuropsychopharmacology : the journal of the …, 2014).

For assay [1], the target named is T1, D3 receptor (Homo sapiens, UniProt P35462). Particulars: read-out: Ki±SEM; binding data previously reported; ref Newman et al. (2003); cited from earlier work.
Assay [2] has as its target T1, D3 receptor. The assay can be described thus: [3H]methylspiperone saturation binding. The following applies: 1 μM sulpiride (Fig. 6).
The target of another assay is D3 dopamine receptor (Homo sapiens, UniProt P35462). Briefly: β-arrestin recruitment assay. Format: cell-based.
D3 dopamine receptor, sequence (P35462 whole entry): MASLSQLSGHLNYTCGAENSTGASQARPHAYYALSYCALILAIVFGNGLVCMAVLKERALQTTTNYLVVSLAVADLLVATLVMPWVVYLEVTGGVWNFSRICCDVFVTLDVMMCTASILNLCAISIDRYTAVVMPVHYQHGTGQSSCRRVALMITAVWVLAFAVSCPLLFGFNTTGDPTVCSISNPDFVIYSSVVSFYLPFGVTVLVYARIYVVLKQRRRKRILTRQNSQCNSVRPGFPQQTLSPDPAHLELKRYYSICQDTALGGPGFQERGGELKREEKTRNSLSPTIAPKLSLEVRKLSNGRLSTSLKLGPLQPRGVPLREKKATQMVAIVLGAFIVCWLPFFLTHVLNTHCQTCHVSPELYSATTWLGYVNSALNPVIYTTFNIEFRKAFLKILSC

T1 sequence (P35462 whole entry): as above

Usually Ki stands for a dissociation constant, usually derived from enzyme kinetics or from competition with a known ligand. For the molecule `O=C(NCCCCN1CCN(c2cccc(Cl)c2Cl)CC1)c1ccc(-c2ccccn2)cc1` [CJB 090], on D3 receptor [1], the Ki is 0.6 ± 0.2 nM.
On to `CCN1CCCC1CNC(=O)c1cc(S(N)(=O)=O)ccc1OC` (stereo not shown) [sulpiride], for which the “Bmax of [3H]methylspiperone in presence of compound” value on D3 receptor [2] was 6,190 fmol/mg. Also, the “Hill slope of Schild plot” value at D3 dopamine receptor (curve-shift of dopamine concentration response (Fig. 7), n=3–5, mean±SEM) was found to be 1.04±0.05; at D3 dopamine receptor (curve-shift of dopamine concentration response (Fig. 11)) it was 1.04±0.05.
